In one series the test system is IBABP mRNA. Put plainly: Regulation of IBABP expression in Caco-2 cells, quantitative RT-PCR. As to conditions: 100 nM, 24 h, normalized to ARPP0. It counts as cell-based, human. The procedure:
(§1) The expression of IBABP-L and IBABP was measured by quantitative RT-PCR. The mRNA copy number of each variant is normalized to the expression the housekeeping gene ARPP0. Values in the figure represent the average of three experiments with each replicate performed in duplicate.
(§2) To determine the relative expression levels of IBABP-L and IBABP, a two-step quantitative RT-PCR procedure was used. In the first step, complementary DNA (cDNA) was synthesized from total RNA. […] In the second step, quantitative PCT (QPCR) was carried out on a Mx 3000P Real-Time PCR System (Stratagene, La Jolla, Calif.) using a solution containing diluted cDNA (1:20; 2.0 μl), 1×SYBR Green PCR Master Mix (Applied Biosystems, Foster City, Calif.), and primers for IBABP-L, IBABP, or ARPP0 (0.25 μM). […]
(§3) Caco-2 cells were seeded in six-well plates (Falcon) at 2×10^5 cells/well. […] Cells were harvested, cellular RNA was isolated using the RNeasy Mini Kit (Qiagen) according to manufacturer instruction, and expression of IBABP variants was determined by QPCR as described above. […]

The next series relates to IBABP-L mRNA. Kind of series: Regulation of IBABP-L expression in Caco-2 cells, quantitative RT-PCR. To be noted: 24 h, normalized to ARPP0. It counts as cell-based, human. As to the method: as §1, §2, §3
A further series addresses T1, BAR (Homo sapiens, UniProt Q96RI1).
T1 sequence (Q96RI1 1-486): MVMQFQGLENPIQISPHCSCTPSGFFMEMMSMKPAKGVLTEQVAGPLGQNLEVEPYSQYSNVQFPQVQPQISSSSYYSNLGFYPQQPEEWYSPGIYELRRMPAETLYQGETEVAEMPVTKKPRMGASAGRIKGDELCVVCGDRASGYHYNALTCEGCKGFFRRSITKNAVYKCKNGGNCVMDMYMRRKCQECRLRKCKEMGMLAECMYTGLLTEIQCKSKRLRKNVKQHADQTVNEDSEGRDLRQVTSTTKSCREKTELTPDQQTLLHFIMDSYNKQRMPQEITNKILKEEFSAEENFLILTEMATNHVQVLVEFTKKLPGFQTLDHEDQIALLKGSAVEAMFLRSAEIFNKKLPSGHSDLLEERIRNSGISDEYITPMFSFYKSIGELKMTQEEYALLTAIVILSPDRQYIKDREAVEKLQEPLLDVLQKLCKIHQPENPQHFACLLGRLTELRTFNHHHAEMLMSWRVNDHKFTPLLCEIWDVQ
As to conditions: gene-selective BAR modulator; cited from earlier work.

Turning to `CC1=C(/C=C/C(C)=C\C=C\C(C)=C\C(=O)O)C(C)(C)CCC1` [9cRA, 9-cis-retinoic acid], the “effect on expression of IBABP” value in the series with IBABP mRNA is given as “up-regulated”. Moreover, in the series on IBABP-L mRNA (100 nM), the “effect on expression of IBABP-L” value is recorded as “without effect”.
`CCCCCCOc1c(\C(C)=C/C=C/C(C)=C/C(=O)O)cc(C(C)C)cc1C(C)C` [AGN34]: at BAR, the “action on CYP7A1” value is listed as “agonist”, the “action on IBABP” value is listed as “antagonist” and the “action on SHP” value is “neutral”.
On to `C[C@H](CCC(=O)O)[C@H]1CC[C@H]2[C@@H]3[C@H](O)C[C@@H]4C[C@H](O)CC[C@]4(C)[C@H]3CC[C@]12C` [CDCA, chenodeoxycholic acid], for which the “effect on expression of IBABP-L” value with IBABP-L mRNA (100 μM) is “without effect”.

The values above are taken from patent publication US8563248B2, “Compositions and methods for detection of colorectal cancer” (priority 2005, dated 2013).
